The text below walks through data of US4528397A, “Aminocarboxylic acid derivatives” (Sanraku-Ocean Co., Ltd., priority 1982, dated 1985).

The target of one series is T1, dipeptidase (Rattus norvegicus, UniProt P31430).
T1 construct: from tissue; host or cells: rat kidney, microsome fraction
Kind of series: In vitro inhibition of partially purified rat kidney dipeptidase (spectrophotometric). The series is classed as biochemical. The following applies: pH 8.0, 37° C., substrate of Table 1 (glycyldehydrophenylalanine or PS-5) not stated; for inhibition at 100 µM: inhibitor 10^-4 M. As to the method:
(1) Purification of dipeptidase
Rats were sacrificed by decapitation, and about 12 g of fresh kidneys were collected. A microsome fraction was obtained by the Hogboom's subcellular fractionating method used on differential centrifugation (Methods in Enzymology, Vol. 1, pages 16-19, Academic Press, New York, 1955). The microsome fraction was treated with 400 μg/ml of trypsin at 0° C. for 16 hours, and then supercentrifugally fractionated at 10^5 G for 60 minutes at 0° C.
The resulting precipitate was suspended in 20 ml of tris-HCl buffer (20 mM, pH 7.6) containing a detergent (0.4% Triton X-100), and then supercentrifugally fractionated at 10^5 G for 60 minutes at 0° C. The supernatant liquid was charged onto a column (15×100 mm) of Sephadex A-50 (Cl-form), and the column was eluted with tris-HCl buffer (20 mM, pH 7.0) containing a detergent (0.4% Triton X-100) with a sodium chloride concentration linear gradient from 0 to 0.5M.
The active fractions were concentrated with polyethylene glycol 4000, and then successively purified by a Sephadex G-150 (25×900 mm) column and a Sephadex G-200 (25×900 mm) column using the same tris-HCl buffer as above to obtain a partially purified sample of the dipeptidase.
(2) Measurement of inhibitory activity
Fifty microliters of the enzyme obtained as above was preincubated together with 30 μl of an inhibitor solution in a cuvette at 37° C. for 5 minutes. Then, 2.82 ml of a solution of glycyldehydrophenylalanine (5.3×10^-5 M) preincubated to 37° C. as a substrate in tris-HCl (0.1M, pH 8.0) was added, and the reaction was started. The reaction was carried out in a cuvette of a Hitachi spectrophotometer equipped with a constant temperature (37° C.) device, and by a recorder, a decrease in the absorbance of the reaction mixture at a wavelength of 275 nm during 5 minutes was measured.
The same experiment as above was carried out using a tris-HCl (pH 8.0) solution of antibiotic PS-5 (1.03 mM) as a substrate, and a decrease in the absorbance of the reaction mixture at a wavelength of 300 nm during 5 minutes was measured.
The percent inhibition and ID50 at a predetermined inhibitor concentration were determined from the measured values obtained as above and that obtained in a control in which no inhibitor was used.

Series [1] in a line: Coadministration of AEG and antibiotic PS-5: plasma concentration of antibiotic PS-5. It is filed as in vivo, mice (male, ddY). The note with it: for concentration at 5 min / concentration at 0.25 h / concentration at 0.5 h: mouse, plasma, sc, 2 mg. The method, then:
(§1) Coadministration of N-(2-aminoethyl)glycine and antibiiotic PS-5
(§2) To groups of 5 mice each (male, ddY, aged 5 weeks) was orally administered 0.25 ml (20 mg/mouse) of an aqueous solution of N-(2-aminoethyl)glycine (AEG) in a concentration of 80 mg/ml (the solutions had been adjusted to pH 7.5 with 1N HCl). The same volume of pure water was administered to a control group. Thirty minutes later, 0.25 ml of a solution of antibiotic PS-5 Na salt (8 mg/ml) in M/100 PBS (pH 7.0) was subcutaneously administered. Blood was taken from the retroorbital sinus at various time intervals using a heparinized capillary (a thermohematocrit capiratry tube, total length 75 mm, outside diameter 1.45-1.65 mm). One end of the tube was sealed with IATROSEAL® (Iatron Laboratries) and the plasma was separated by centrifugal separation (3000 rpm, 10 minutes). Blood sampling was carried out a total of six times at 0 time (immediately before administration of the antibiotic PS-5) and 5 minutes, 15 minutes, 30 minutes, 60 minutes and 90 minutes after the administration of the antibiotic PS-5. The concentration of the antibiotic PS-5 in the plasma was disc-assayed against Comamonas terrigena B-996.

Series [2] can be described thus: Coadministration of AEG and antibiotic PS-5: urinary recovery of antibiotic PS-5. It is filed as in vivo, mice (male, ddY). The note with it: mouse, urine, sc, 2 mg, 0-3 hrs. The method, then:
as §1
as §2, with “The concentration of the antibiotic PS-5 in the plasma was disc-assayed against Comamonas terrigena B-996.” left out
On the other hand, the whole urine of the mice was taken 3 hours after the administration of the antibiotic PS-5, and the concentration of the antibiotic PS-5 in the collected whole urine was assayed by the same method as above. The mean concentrations for five mice was calculated.

T1 sequence (P31430 17-410): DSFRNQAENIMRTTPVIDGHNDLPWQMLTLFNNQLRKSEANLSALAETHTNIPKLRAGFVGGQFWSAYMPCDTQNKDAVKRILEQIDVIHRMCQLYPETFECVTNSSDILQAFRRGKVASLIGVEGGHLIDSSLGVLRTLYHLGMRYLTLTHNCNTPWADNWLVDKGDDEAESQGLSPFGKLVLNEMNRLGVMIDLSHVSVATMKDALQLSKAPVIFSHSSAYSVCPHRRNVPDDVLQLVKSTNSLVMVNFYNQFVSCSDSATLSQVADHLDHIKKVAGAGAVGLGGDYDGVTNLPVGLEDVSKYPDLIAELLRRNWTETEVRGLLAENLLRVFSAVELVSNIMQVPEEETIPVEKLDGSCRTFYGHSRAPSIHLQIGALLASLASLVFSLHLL

By inhibition is commonly meant the drop in the measured response relative to a control, in per cent. A high value points to a strong effect. Turning to `NCCNCC(=O)O` [Compound 1, N-(2-aminoethyl)glycine], the inhibition at 100 µM on dipeptidase was determined as 86%.

In the case of `NCCSCC(=O)O` [Compound 2, (2-aminoethyl)thioacetic acid], at dipeptidase, at 100 µM the inhibition was 2%.

In the case of `C[C@H](NCCN)C(=O)O` [Compound 3, N-(2-aminoethyl)-L-alanine], at dipeptidase, the inhibition at 100 µM is 15.6%.

For `NCCN[C@@H](Cc1ccccc1)C(=O)O` [Compound 4, N-(2-aminoethyl)-L-phenylalanine], testing at 100 µM against dipeptidase gave an inhibition of 38%.

`N[C@H](CNCC(=O)O)Cc1ccccc1` [Compound 5, (S)-[N-(2-amino-2-benzyl)ethyl]glycine] came in with an inhibition at 100 µM against dipeptidase of 85%. For the same compound, on dipeptidase (read-out: ID50 (the source's name)), the IC50 turned out to be 22 µM.

Regarding `C[C@H](N)CNCC(=O)O` [Compound 6, (S)-N-(2-aminopropyl)glycine], the inhibition at 100 µM against dipeptidase was determined as 42.4%.

Consider `CC[C@H]1C(=O)N2C(C(=O)O)=C(SCCNC(C)=O)C[C@H]12` [antibiotic PS-5], for which the “Concentration of antibiotic PS-5 in the plasma” value in series [1] (AEG administered group (AEG 20 mg/mouse oral, 30 min before PS-5 s.c.), 0 min (immediately before PS-5)) was 0 ng/mL; in series [1] (AEG administered group, 60 min after PS-5 s.c.), 0 ng/mL; in series [1] (AEG administered group, 90 min after PS-5 s.c.), 0 ng/mL; in series [1] (Control group (water instead of AEG, then PS-5 s.c.), 0 min (immediately before PS-5)), 0 ng/mL; in series [1] (Control group (water, PS-5 s.c.), 60 min), 0 ng/mL; in series [1] (Control group (water, PS-5 s.c.), 90 min), 0 ng/mL. The concentration at 5 min in series [1] (AEG administered group, 5 min after PS-5 s.c.) came to 49600 ± 3700 ng/mL; in series [1] (Control group (water, PS-5 s.c.), 5 min), 52000 ± 4600 ng/mL. In addition, the concentration at 0.25 h turned out to be 21700 ± 2600 ng/mL in series [1] (AEG administered group, 15 min after PS-5 s.c.) and 15200 ± 1900 ng/mL in series [1] (Control group (water, PS-5 s.c.), 15 min). Also, the concentration at 0.5 h was 2300 ± 500 ng/mL in series [1] (AEG administered group, 30 min after PS-5 s.c.) and 1000 ± 100 ng/mL in series [1] (Control group (water, PS-5 s.c.), 30 min). Moreover, the dose excreted at 3 h turned out to be 13.2% in series [2] (AEG administered group (AEG 20 mg/mouse oral, PS-5 s.c.)) and 0% in series [2] (Control group (water, PS-5 s.c.)).
